We go through two compounds from patent US5846934A, “Pure somatostatin antagonist and methods of use thereof” (American Cyanamid Company, priority 1997, dated 1998).

The target in assay [1] is T1, rat somatostatin receptor subtype 2 (SSTR2) (Rattus norvegicus, UniProt P30680).
T1 construct: expressed in transfected cells; host or cells: Saccharomyces cerevisiae LY364 bearing pJH2 (SSTR2) and pLP82 (G protein)
The experiment in a line: Yeast assay, somatostatin agonist activity (zone of growth of modified yeast cells). Format: cell-based. Set-up: key: 1 is minimum agonist activity; 5 is maximum agonist activity; --: When no activity is observed, the result is indicated by a dash. To be noted: rating on a scale of 1-5 from zone of growth; S. cerevisiae LY364 expressing rat SSTR2. As for the experimental part: (§1) In this evaluation, yeast cells which have been specifically modified to functionally express rat somatostatin receptor subtype 2 (SSTR2) on their cell surfaces are used. S. Cerevisiae LY364 cells are plated in a standard synthetic agar medium which lacks histidine. In the absence of a somatostatin receptor agonist, the auxotrophic (his3) cells are unable to grow. In the presence of somatostatin, or a somatostatin agonist, the expression of an enzyme (His3p: imidazole-glycerol phosphate dehydratase) which is essential for histidine biosynthesis is induced. The cells become competent to produce histidine, resulting in a zone of growing cells around the applied test compound. The zone is measured and the test compound is given an agonist rating on a scale of 1-5 wherein 1 is minimum agonist activity and 5 is maximum agonist activity.
1) Inoculate 2 mL SCD-ura-trp liquid medium in Falcon 2051 tube with a single colony taken from a plate containing LY364 (MATa ura3-52 leu2 his3 trp1 lys2 ade2 far1:: LYS2 fus1:: FUS1-HIS3 gpa1::hisG sst2::.ADE2 bearing the SSTR2 expression plasmid, pJH2, and the G protein expression plasmid, pLP82) cells.
3) Add 1 mL of LY364 culture to 1 liter of agar medium.
8) Incubate plates at 30° C.
Day 5. Begin checking plates for growth around applied compounds.
(§2) Day 7. Growth in response to somatostatin should be readily observable. Rate extent of growth or inhibition of growth according to rating scale described hereinabove.

Another assay has as its target SSTR2 (Rattus norvegicus, UniProt P30680). The experiment in a line: Competitive binding, displacement of [125I]Tyr11 S-14. Set-up: expressed in transfected cells; membrane protein. As to conditions: for Ki: calculated by method of Cheng and Prusoff, read-out: SSTR2 Binding Affinity Ki; for IC50: displacement of [125I]Tyr11 S-14, 250 pM, room temperature, 2 hours, read-out: SSTR2 Binding Affinity IC50. How it is done: In this evaluation the concentration of test compound required to displace 50% of somatostatin, SRIF, from the SRIF receptor subtypes expressed in mammalian cells is measured, i.e., the concentration required to inhibit 50% of [^125 I] Tyr^11 S-14 (Amersham) (IC50) from binding to the SRIF receptor subtypes.
Radiolabeled SRIF is mixed with pituitary cells, the test compound is added, the mixture is incubated and the radioactivity is measured as compared to control. Reduced radioactivity indicates successful competitive binding of the test compound to the pituitary cell receptor. The concentration of the test compound in nanomolar units required to displace 50% of SRIF from the pituitary cell receptor is calculated and reported in Table II as the IC50 value. Also calculated is the inhibitory constant, Ki.
Tyr^11 S-14 (150,000 cpm at 2000 Ci/mmole, 250 pM final concentration). The binding reaction is initiated by adding 2-60 μg of membrane protein in a 170 μL volume. Final reaction volume is 200 μl/well. All incubations are carried out at room temperature for 2 hours. Free radioligand is separated from bound ligand by rapid filtration through a glass fiber filter (IH-201-HA) using an Inotech cell harvester. The filter is then washed several times with cold (4° C.) binding buffer lacking BSA and protease inhibitors prior to counting in an LKB gamma master counter (78% efficiency). Whatman GFC filters presoaked in 0.3% polyethylenimine (to decrease background) are used.
The IC50 values and Ki values are calculated using the well-known methods described by Y. Cheng and W. H. Prusoff, Biochem. Pharmacol. 22, 3099-3108 (1973), incorporated herein by reference thereto.

The target of assay [2] is T1, rat somatostatin receptor subtype 2 (SSTR2). Kind of assay: Yeast assay, somatostatin antagonist activity (zone of no growth in presence of S-14). Set-up: key: 1 is minimum antagonist activity; 5 is maximum antagonist activity; --: When no activity is observed, the result is indicated by a dash. Type of assay: cell-based. As to conditions: rating on a scale of 1-5 from zone of no growth; 5 μL of 1 mg/mL S-14 added to each plate. How it is done: as §1
To evaluate the somatostatin antagonist activity of a test compound, the above procedure is followed except on day 3, 5 μL of 1 mg/mL of somatostatin, S-14, is added to each plate, before applying the test compound. If the test compound is an antagonist of somatostatin, then a zone of no growth will appear within the cell growth zone. This zone of no growth is measured and the test compound is given an antagonist rating on a scale of 1-5 wherein 1 is minimum antagonist activity and 5 is maximum antagonist activity.
The results are shown in Table I. When no activity is observed, the result is indicated by a dash.
On day 3, add 5 μL 1 mg/mL S-14 to each plate.
as §2

Positions of bridges follow the written chain, without caps; N, C: chain ends. Non-standard residues stand in square brackets, D forms with d. Residues, ends and D or L forms follow the SMILES beside them. Phe(4-NO2) = N[C@@H](Cc1ccc([N+](=O)[O-])cc1)C(=O)O; 2Nal = N[C@@H](Cc1ccc2ccccc2c1)C(=O)O

SSTR2, sequence (P30680 whole entry): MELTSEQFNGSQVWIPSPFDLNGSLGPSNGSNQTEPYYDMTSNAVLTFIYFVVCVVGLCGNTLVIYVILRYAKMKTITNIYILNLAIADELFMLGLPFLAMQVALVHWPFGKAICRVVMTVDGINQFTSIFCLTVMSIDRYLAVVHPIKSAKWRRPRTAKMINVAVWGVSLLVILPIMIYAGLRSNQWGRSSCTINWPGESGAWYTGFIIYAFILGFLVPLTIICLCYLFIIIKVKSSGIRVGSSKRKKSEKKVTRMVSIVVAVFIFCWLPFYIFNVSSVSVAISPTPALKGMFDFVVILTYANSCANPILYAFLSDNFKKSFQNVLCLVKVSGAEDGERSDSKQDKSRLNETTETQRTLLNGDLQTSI
T1 sequence (P30680 whole entry): as above

With `C[C@@H](O)[C@@H]1NC(=O)[C@H](CCCNC(=N)N)NC(=O)[C@@H](Cc2c[nH]c3ccccc23)NC(=O)[C@H](Cc2ccc(O)cc2)NC(=O)[C@H](NC(=O)[C@@H](N)Cc2ccc([N+](=O)[O-])cc2)CSSC[C@@H](C(=O)N[C@@H](Cc2ccc(O)cc2)C(N)=O)NC1=O` [4-NO2 Phe Tyr Arg Thr Tyr] (H-[Phe(4-NO2)][dC]Y[dW]RTCY-NH2; disulfide 2-7 (inferred); N-terminus and C-terminus assumed), in assay [1], the “Yeast Assay Agonist” value was “--”. On SSTR2, the Ki (usually a measure of affinity in units of concentration, obtained from inhibition or displacement) was 25 nM and the IC50 (usually the concentration that inhibits the measured activity by half) was 57 nM. Moreover, the “Yeast Assay Antagonist” value in assay [2] is 2.
In the same order, the values of `C[C@@H](O)[C@@H]1NC(=O)[C@H](CCCCN)NC(=O)[C@@H](Cc2c[nH]c3ccccc23)NC(=O)[C@H](Cc2ccc(O)cc2)NC(=O)[C@H](NC(=O)[C@@H](N)Cc2ccc3ccccc3c2)CSSC[C@@H](C(=O)N[C@@H](Cc2ccc(O)cc2)C(N)=O)NC1=O` [L-Nal(2) Tyr Lys Thr Tyr] (H-[2Nal][dC]Y[dW]KTCY-NH2; disulfide 2-7 (inferred); N-terminus and C-terminus assumed) are “--”, 0.4 nM, 0.9 nM and 1.
